Measurements as given in patent US11629171B2, “Beta-hairpin peptidomimetics” (POLYPHOR AG, priority 2017, dated 2023).
Values after ≈ are worked out from the molar mass of the structure shown. Where a SMILES comes first, the peptide text is derived from it. Bridges are numbered along the chain shown (N, C = ends). Roman numbers before positions name the chains, in order. [ ]: non-standard residue; d: D form. Thr(ol) = C[C@@H](O)[C@H](N)CO; Pen = CC(C)(S)[C@H](N)C(=O)O; Tle = CC(C)(C)[C@H](N)C(=O)O; Hiv = CC(C)[C@H](O)C(=O)O; dDab = NCC[C@@H](N)C(=O)O; hSer = N[C@@H](CCO)C(=O)O; Nle = CCCC[C@H](N)C(=O)O; Orn = NCCC[C@H](N)C(=O)O; Dab = NCC[C@H](N)C(=O)O; Dap = NC[C@H](N)C(=O)O

Legend:
Type in all cases: cell-based
[1] = tested on: Acinetobacter baumannii 872842; conditions: 872842
Summary of the method: (§1)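 Broth microdilution per CLSI; MH-II (cation-adjusted) + 0.002% P-80 final; ~10^6 CFU/mL inoculum; 2-fold peptide series; 35° C, 18-20 h; MIC = no visible growth, μg/mL.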

[2] = tested on: Klebsiella pneumoniae 968733; conditions: 968733
Summary of the method: as §1

[3] = tested on: Klebsiella pneumoniae SSI #3010; conditions: SSI #3010
Summary of the method: as §1

[4] = tested on: Enterobacter cloacae 848840; conditions: 848840
Summary of the method: as §1

[5] = tested on: Pseudomonas aeruginosa ATCC 27853; conditions: ATCC 27853
Summary of the method: as §1

[6] = tested on: Acinetobacter baumannii DSM 30008; conditions: DSM 30008
Summary of the method: as §1

[7] = tested on: Escherichia coli ATCC 25922; conditions: ATCC 25922
Summary of the method: as §1

Escherichia coli 926415 = conditions: 926415
Summary of the method: as §1

[8] = tested on: human red blood cells (hRBC); experiment: Hemolysis; conditions: red cells of human, 1 h, 200
Summary of the method: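 Washed fresh hRBC (20% v/v) were incubated with peptides at 200 μg/mL for 1 h at 37° C with shaking at 300 rpm. Supernatant OD540 was read after centrifugation and dilution, blank-corrected, and expressed as percent of the 2% Triton X-100 (100% lysis) control; PBS with 10% water gave 0%.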

Row | MIC [1] [µg/mL] | MIC [2] [µg/mL] | MIC [3] [µg/mL] | MIC [4] [µg/mL] | MIC [5] [µg/mL] | MIC [6] [µg/mL] | MIC [7] [µg/mL] | MIC (Escherichia coli 926415) [µg/mL] | Klebsiella pneumoniae SSI #3010 MIC [3] [µg/mL] | Pseudomonas aeruginosa ATCC 27853 MIC [5] [µg/mL] | Acinetobacter baumannii DSM 30008 MIC [6] [µg/mL] | Escherichia coli ATCC 25922 MIC [7] [µg/mL] | Compound | Hemolysis at 200 μg/mL [8] [%]
1 | 0.5 (≈ 0.207 µM) | 2 (≈ 0.829 µM) |  | 8 (≈ 3.32 µM) |  |  |  | 0.5 (≈ 0.207 µM) | 0.25 | 0.25 | 0.25 | 0.125 | CC(=O)N[C@H](C(=O)N[C@H]1CSSC[C@@H](C(=O)N[C@@H](CO)C(N)=O)NC(=O)[C@H](C(C)C)NC(=O)[C@H](CO)NC(=O)[C@H](Cc2c[nH]c3ccccc23)NC(=O)[C@@H](CCC(=O)N[C@@H](CCN)C(=O)N[C@H](C(=O)N[C@@H](CN)C(=O)N[C@H]2CCNC(=O)[C@H]([C@@H](C)O)NC(=O)[C@H](CCN)NC(=O)[C@H](CCN)NC(=O)[C@H](CC(C)C)NC(=O)[C@@H](CC(C)C)NC(=O)[C@H](CCN)NC2=O)[C@@H](C)O)NC(=O)[C@@H](CCN)NC(=O)[C@H](CCCN)NC(=O)[C@H](CO)NC(=O)[C@H](Cc2ccc(O)cc2)NC1=O)C(C)C [Ex. 366] (I: Ac-VCYS[Orn][dDab][dE]WSVCS-NH2 / II: [Dab]T[Dap][Dab][Dab][dL]L[Dab][Dab]T; disulfide I:2-I:11; amide I:7-II:N; lactam II:4-II:C) | 4
2 | 0.0625 (≈ 0.0249 µM) | 0.5 (≈ 0.199 µM) |  | 0.5 (≈ 0.199 µM) |  |  |  | 0.25 (≈ 0.0994 µM) | 0.0625 | 0.0625 | 0.0625 | 0.0625 | CC(=O)N[C@H](C(=O)N[C@H]1CSSC[C@@H](C(=O)N[C@@H](CO)C(=O)N[C@@H](CC(=O)O)C(N)=O)NC(=O)[C@H](C(C)C)NC(=O)[C@H](CO)NC(=O)[C@H](Cc2c[nH]c3ccccc23)NC(=O)[C@H](CCN)NC(=O)[C@@H](CCN)NC(=O)[C@H](CCC(=O)N[C@@H](CCN)C(=O)N[C@H](C(=O)N[C@@H](CN)C(=O)N[C@H]2CCNC(=O)[C@H]([C@@H](C)O)NC(=O)[C@H](CCN)NC(=O)[C@H](CCN)NC(=O)[C@H](CC(C)C)NC(=O)[C@@H](CC(C)C)NC(=O)[C@H](CCN)NC2=O)[C@@H](C)O)NC(=O)[C@H](CO)NC(=O)[C@H](Cc2ccc(O)cc2)NC1=O)C(C)C [Ex. 371] (I: Ac-VCYSE[dDab][Dab]WSVCSD-NH2 / II: [Dab]T[Dap][Dab][Dab][dL]L[Dab][Dab]T; disulfide I:2-I:11; amide I:5-II:N; lactam II:4-II:C) | 0

More lines, now with the values behind:

Row | Compound | MIC [1] [µg/mL] | MIC [2] [µg/mL] | MIC [3] [µg/mL] | MIC [4] [µg/mL] | MIC [5] [µg/mL] | MIC [6] [µg/mL] | MIC [7] [µg/mL] | MIC (Escherichia coli 926415) [µg/mL] | Klebsiella pneumoniae SSI #3010 MIC [3] [µg/mL] | Pseudomonas aeruginosa ATCC 27853 MIC [5] [µg/mL] | Acinetobacter baumannii DSM 30008 MIC [6] [µg/mL] | Escherichia coli ATCC 25922 MIC [7] [µg/mL] | Hemolysis at 200 μg/mL [8] [%]
3 | CC(C)C[C@@H]1NC(=O)[C@@H](CC(C)C)NC(=O)[C@H](CCN)NC(=O)[C@@H](NC(=O)[C@H](CCN)NC(=O)[C@@H](NC(=O)[C@H](CCN)NC(=O)CC[C@@H]2NC(=O)[C@H](CCN)NC(=O)[C@H](Cc3ccc(O)cc3)NC(=O)[C@@H](NC(=O)[C@@H](O)C(C)C)C(C)(C)SSC[C@@H](C(=O)N[C@H](CO)[C@@H](C)O)NC(=O)[C@H](C(C)(C)C)NC(=O)[C@H](CO)NC(=O)[C@H](Cc3c[nH]c4ccccc34)NC(=O)[C@H](CCO)NC(=O)[C@@H](CCN)NC2=O)[C@@H](C)O)CCNC(=O)[C@H]([C@@H](C)O)NC(=O)[C@H](CCN)NC(=O)[C@H](CCN)NC1=O [Ex. 84] (I: H-[Hiv][Pen]Y[Dab]E[dDab][hSer]WS[Tle]C[Thr(ol)] / II: [Dab]T[Dab][Dab][Dab][dL]L[Dab][Dab]T; disulfide I:2-I:11; amide I:5-II:N; lactam II:4-II:C) | 0.125 (≈ 0.0515 µM) | 0.125 (≈ 0.0515 µM) | 0.125 (≈ 0.0515 µM) | 0.25 (≈ 0.103 µM) | 0.25 (≈ 0.103 µM) | 0.125 (≈ 0.0515 µM) | 0.0625 (≈ 0.0257 µM) | 0.125 (≈ 0.0515 µM) |  |  |  |  | <1
4 | CC(=O)N[C@@H](CCN)C(=O)N[C@H](C(=O)N[C@H](C(=O)N[C@@H](Cc1ccc(O)cc1)C(=O)N[C@@H](CN)C(=O)N[C@@H](CCC(=O)N[C@@H](CCN)C(=O)N[C@H](C(=O)N[C@@H](CN)C(=O)N[C@H]1CCNC(=O)[C@H]([C@@H](C)O)NC(=O)[C@H](CCN)NC(=O)[C@H](CCN)NC(=O)[C@H](CC(C)C)NC(=O)[C@@H](CC(C)C)NC(=O)[C@H](CCN)NC1=O)[C@@H](C)O)C(=O)N[C@H](CCN)C(=O)N[C@@H](CO)C(=O)N[C@@H](Cc1c[nH]c2ccccc12)C(=O)N[C@@H](CO)C(=O)N[C@H](C(=O)N[C@@H](CO)C(=O)N[C@H](C(=O)N[C@@H](CCC(=O)O)C(N)=O)C(C)C)C(C)(C)C)[C@@H](C)O)C(C)C [Ex. 249] (I: Ac-[Dab]VTY[Dap]E[dDab]SWS[Tle]SVE-NH2 / II: [Dab]T[Dap][Dab][Dab][dL]L[Dab][Dab]T; amide I:6-II:N; lactam II:4-II:C) | 0.03125 (≈ 0.0119 µM) | 0.25 (≈ 0.0953 µM) | 0.0625 (≈ 0.0238 µM) | 0.125 (≈ 0.0476 µM) | 0.125 (≈ 0.0476 µM) | 0.03125 (≈ 0.0119 µM) | 0.03125 (≈ 0.0119 µM) | 0.125 (≈ 0.0476 µM) |  |  |  |  | 2
5 | CC(=O)N[C@H](C(=O)N[C@H](C(=O)N[C@@H](Cc1ccc(O)cc1)C(=O)N[C@H]1CSSC(C)(C)[C@@H](C(=O)N[C@H](C(=O)N[C@H](C(=O)N[C@H](C(N)=O)[C@@H](C)O)[C@@H](C)O)C(C)C)NC(=O)[C@H](Cc2c[nH]c3ccccc23)NC(=O)[C@H](CO)NC(=O)[C@@H](CCN)NC(=O)[C@H](CCC(=O)N[C@@H](CCN)C(=O)N[C@H](C(=O)N[C@@H](CN)C(=O)N[C@H]2CCNC(=O)[C@H]([C@@H](C)O)NC(=O)[C@H](CCN)NC(=O)[C@H](CCN)NC(=O)[C@H](CC(C)C)NC(=O)[C@@H](CC(C)C)NC(=O)[C@H](CCN)NC2=O)[C@@H](C)O)NC1=O)[C@@H](C)O)C(C)C [Ex. 222] (I: Ac-VTYCE[dDab]SW[Pen]VTT-NH2 / II: [Dab]T[Dap][Dab][Dab][dL]L[Dab][Dab]T; disulfide I:4-I:9; amide I:5-II:N; lactam II:4-II:C) | 0.0625 (≈ 0.0254 µM) | 0.25 (≈ 0.102 µM) | 0.0625 (≈ 0.0254 µM) | 0.125 (≈ 0.0509 µM) | 0.125 (≈ 0.0509 µM) | 0.0625 (≈ 0.0254 µM) | 0.03125 (≈ 0.0127 µM) | 0.25 (≈ 0.102 µM) |  |  |  |  | 1
6 | CC(C)C[C@@H]1NC(=O)[C@@H](CC(C)C)NC(=O)[C@H](CCN)NC(=O)[C@@H](NC(=O)[C@H](CN)NC(=O)[C@@H](NC(=O)[C@H](CCN)NC(=O)CC[C@H]2NC(=O)[C@@H](CCN)NC(=O)CNC(=O)[C@@H](NC(=O)[C@H](Cc3ccc(O)cc3)NC(=O)[C@@H](NC(=O)[C@@H](O)C(C)C)[C@@H](C)O)CSSC[C@@H](C(=O)N[C@H](C(=O)N[C@@H](C)C(=O)N[C@H](CO)[C@@H](C)O)C(C)(C)C)NC(=O)[C@H](Cc3c[nH]c4ccccc34)NC2=O)[C@@H](C)O)CCNC(=O)[C@H]([C@@H](C)O)NC(=O)[C@H](CCN)NC(=O)[C@H](CCN)NC1=O [Ex. 214] (I: H-[Hiv]TYCG[dDab][dE]WC[Tle]A[Thr(ol)] / II: [Dab]T[Dap][Dab][Dab][dL]L[Dab][Dab]T; disulfide I:4-I:9; amide I:7-II:N; lactam II:4-II:C) | 0.5 (≈ 0.215 µM) | 0.5 (≈ 0.215 µM) | 0.25 (≈ 0.107 µM) | 8 (≈ 3.44 µM) | 0.5 (≈ 0.215 µM) | 0.125 (≈ 0.0537 µM) | 0.0625 (≈ 0.0268 µM) | 0.5 (≈ 0.215 µM) |  |  |  |  | <1
7 | CCCC[C@@H]1NC(=O)[C@H](CO)NC(=O)[C@H](Cc2c[nH]c3ccccc23)NC(=O)[C@H](CO)NC(=O)[C@@H](CCN)NC(=O)[C@H](CCC(=O)N[C@@H](CCN)C(=O)N[C@H](C(=O)N[C@@H](CN)C(=O)N[C@H]2CCNC(=O)[C@H]([C@@H](C)O)NC(=O)[C@H](CCN)NC(=O)[C@H](CCN)NC(=O)[C@H](CC(C)C)NC(=O)[C@@H](CC(C)C)NC(=O)[C@H](CCN)NC2=O)[C@@H](C)O)NC(=O)[C@H](CCN)NC(=O)[C@H](Cc2ccc(O)cc2)NC(=O)[C@@H](NC(=O)[C@@H](NC(C)=O)C(C)C)CCNC(=O)CC[C@@H](C(=O)N[C@@H](CO)C(N)=O)NC1=O [Ex. 326] (I: Ac-V[Dab]Y[Dab]E[dDab]SWS[Nle]ES-NH2 / II: [Dab]T[Dap][Dab][Dab][dL]L[Dab][Dab]T; lactam I:2-I:11, II:4-II:C; amide I:5-II:N) | 0.125 (≈ 0.0517 µM) | 0.5 (≈ 0.207 µM) |  | 0.0625 (≈ 0.0258 µM) |  |  |  | 0.125 (≈ 0.0517 µM) | 0.0625 | 0.0625 | 0.0625 | 0.0625 | <1
